Structures can show the parent of a compound that is named as a salt.
Key:
Type in all cases: biochemical
human plasma DPP-IV = target: T1, human plasma DPP-IV (Homo sapiens, UniProt P27487); experiment: Inhibition of DPP-IV activity in human plasma; details: substrate H-Glycine-Proline-AMC, pH 7.8, room temperature, 20 min
T1 construct: DPP-IV activity in human and rat plasma; from tissue; host or cells: human plasma
Method: (§1) 192-197 (1992). Briefly, five […] are added to 96-well flat-bottom mictotiter plates (Falcon), followed by the addition of 5 mL of 80 mM MgCl2 in incubation buffer (25 mM HEPES, 140 mM NaCl, 1% RIA-grade BSA, pH 7.8). After a 5 min. incubation at room temperature, the reaction is initiated by the addition of 10 mL of incubation buffer containing 0.1 mM substrate (H-Glycine-Proline-AMC; AMC is 7-amino-4-methylcoumarin). The plates are covered with aluminum foil (or kept in the dark,) and incubated at room temperature for 20 min. After the 20 min. reaction, fluorescence is measured using a CytoFluor 2350 fluorimeter (Excitation 380 nm Emission 460 nm; sensitivity setting 4). Test compounds are typically added as 2 mL additions and the assay buffer volume is reduced to 13 mL. A fluorescence-concentration curve of free AMC is generated using […] solutions of AMC in assay buffer. The curve generated is linear and is used for interpolation of substrate consumption (catalytic activity in nmoles substrate cleaved/min). As with the previous assay, the potency of the test compounds as DPP-IV inhibitors, expressed as IC50, is calculated from 8-point, dose-response curves using a 4 parameter logistic function.

DPP-IV = target: T2, DPP-IV (Homo sapiens, UniProt P27487); experiment: Caco-2 DPP-IV Assay (inhibition of DPP-IV activity from human colonic carcinoma cell extracts); details: Caco-2 cell extract; substrate H-Alanine-Proline-pNA; pH 7.4; room temperature, 10 minutes
T2 construct: DPP-IV activity from human colonic carcinoma cell extracts; endogenous in cells; host or cells: Caco-2 (ATCC HTB 37), differentiated to induce DPP-IV expression; nonidet-P40 extract
T2 sequence (P27487 whole entry): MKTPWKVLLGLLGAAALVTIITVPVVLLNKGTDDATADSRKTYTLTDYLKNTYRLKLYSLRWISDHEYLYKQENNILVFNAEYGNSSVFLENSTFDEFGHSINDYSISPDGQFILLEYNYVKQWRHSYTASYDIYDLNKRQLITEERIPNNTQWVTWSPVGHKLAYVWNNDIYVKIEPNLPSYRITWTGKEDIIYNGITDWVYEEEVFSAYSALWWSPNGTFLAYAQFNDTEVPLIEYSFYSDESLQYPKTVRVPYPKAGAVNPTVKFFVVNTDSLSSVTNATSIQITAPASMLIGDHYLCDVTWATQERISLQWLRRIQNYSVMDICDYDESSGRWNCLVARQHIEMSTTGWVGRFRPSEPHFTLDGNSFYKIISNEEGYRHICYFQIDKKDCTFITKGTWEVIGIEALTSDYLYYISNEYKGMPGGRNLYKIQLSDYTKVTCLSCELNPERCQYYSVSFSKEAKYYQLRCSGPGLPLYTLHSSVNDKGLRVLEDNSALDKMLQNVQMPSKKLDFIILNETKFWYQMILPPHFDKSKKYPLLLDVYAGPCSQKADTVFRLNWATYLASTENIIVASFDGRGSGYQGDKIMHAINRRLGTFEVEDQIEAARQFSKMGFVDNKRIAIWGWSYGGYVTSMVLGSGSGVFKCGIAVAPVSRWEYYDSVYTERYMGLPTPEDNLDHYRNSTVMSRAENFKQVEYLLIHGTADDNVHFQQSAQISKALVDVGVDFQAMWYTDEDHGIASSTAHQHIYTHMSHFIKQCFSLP
Description: As indicated above, all of the compounds of formula I, and their corresponding pharmaceutically acceptable acid addition salts, are useful in inhibiting DPP-IV. […] The human colonic carcinoma cell line Caco-2 was obtained from the American Type Culture Collection (ATCC HTB 37). Differentiation of the cells to induce DPP-IV expression was accomplished as described by Reisher, et al. in an article entitled "Increased expression of . . . intestinal cell line Caco-2" in Proc. Natl. Acad. Sci., Vol. 90, pgs. 5757-5761 (1993). Cell extract is prepared from cells solubilized in 10 mM Tris-HCl, 0.15 M NaCl, 0.04 t.i.u. aprotinin, 0.5% nonidet-P40, pH 8.0, which is centrifuged at 35,000 g for 30 min. at 4° C. to remove cell debris. The assay is conducted by adding […] solubilized Caco-2 protein, diluted to a final volume of 125 mL in assay buffer (25 mM Tris-HCl pH 7.4, 140 mM NaCl, 10 mM KCl, 1% bovine serum albumin) to microtiter plate wells. The reaction is initiated by adding 25 mL of 1 mM substrate (H-Alanine-Proline-pNA; pNA is p-nitroaniline). The reaction is run at room temperature for 10 minutes after which time a 19 mL volume of 25% glacial acetic acid is added to stop the reaction. Test compounds are typically added as 30 mL additions and the assay buffer volume is reduced to 95 mL. A standard curve of free p-nitroaniline is generated using […] solutions of free pNA in assay buffer. The curve generated is linear and is used for interpolation of substrate consumption (catalytic activity in nmoles substrate cleaved/min). The endpoint is determined by measuring absorbance at 405 nm in a Molecular Devices UV Max microtiter plate reader. The potency of the test compounds as DPP-IV inhibitors, expressed as IC50, is calculated from 8-point, dose-response curves using a 4-parameter logistic function.

rat plasma DPP-IV = target: T3, rat plasma DPP-IV (Rattus norvegicus, UniProt P14740); experiment: Inhibition of DPP-IV activity in rat plasma; details: substrate H-Glycine-Proline-AMC, pH 7.8, room temperature, 20 min
T3 construct: DPP-IV activity in human and rat plasma; from tissue; host or cells: rat plasma
T3 sequence (P14740 37-767 limits assumed): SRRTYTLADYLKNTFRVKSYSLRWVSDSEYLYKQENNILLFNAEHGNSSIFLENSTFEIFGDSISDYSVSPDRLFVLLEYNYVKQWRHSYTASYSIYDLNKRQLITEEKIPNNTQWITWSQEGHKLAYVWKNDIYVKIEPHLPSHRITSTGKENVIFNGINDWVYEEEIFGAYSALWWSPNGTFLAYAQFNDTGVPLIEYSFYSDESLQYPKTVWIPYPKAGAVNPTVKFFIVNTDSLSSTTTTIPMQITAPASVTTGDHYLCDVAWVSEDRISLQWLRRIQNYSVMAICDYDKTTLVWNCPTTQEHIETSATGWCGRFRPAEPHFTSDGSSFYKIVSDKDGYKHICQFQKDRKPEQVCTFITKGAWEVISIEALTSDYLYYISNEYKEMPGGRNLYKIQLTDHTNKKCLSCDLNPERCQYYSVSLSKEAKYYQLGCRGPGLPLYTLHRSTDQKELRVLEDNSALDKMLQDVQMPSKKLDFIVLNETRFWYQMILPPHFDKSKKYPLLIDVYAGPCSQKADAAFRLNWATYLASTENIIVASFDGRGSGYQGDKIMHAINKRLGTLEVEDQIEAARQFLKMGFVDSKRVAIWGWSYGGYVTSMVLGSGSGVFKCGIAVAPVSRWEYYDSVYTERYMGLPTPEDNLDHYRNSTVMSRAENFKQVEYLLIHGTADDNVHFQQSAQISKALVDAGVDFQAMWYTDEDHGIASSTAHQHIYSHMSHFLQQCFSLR
Method: as §1

T1 sequence (P27487 39-766 limits assumed): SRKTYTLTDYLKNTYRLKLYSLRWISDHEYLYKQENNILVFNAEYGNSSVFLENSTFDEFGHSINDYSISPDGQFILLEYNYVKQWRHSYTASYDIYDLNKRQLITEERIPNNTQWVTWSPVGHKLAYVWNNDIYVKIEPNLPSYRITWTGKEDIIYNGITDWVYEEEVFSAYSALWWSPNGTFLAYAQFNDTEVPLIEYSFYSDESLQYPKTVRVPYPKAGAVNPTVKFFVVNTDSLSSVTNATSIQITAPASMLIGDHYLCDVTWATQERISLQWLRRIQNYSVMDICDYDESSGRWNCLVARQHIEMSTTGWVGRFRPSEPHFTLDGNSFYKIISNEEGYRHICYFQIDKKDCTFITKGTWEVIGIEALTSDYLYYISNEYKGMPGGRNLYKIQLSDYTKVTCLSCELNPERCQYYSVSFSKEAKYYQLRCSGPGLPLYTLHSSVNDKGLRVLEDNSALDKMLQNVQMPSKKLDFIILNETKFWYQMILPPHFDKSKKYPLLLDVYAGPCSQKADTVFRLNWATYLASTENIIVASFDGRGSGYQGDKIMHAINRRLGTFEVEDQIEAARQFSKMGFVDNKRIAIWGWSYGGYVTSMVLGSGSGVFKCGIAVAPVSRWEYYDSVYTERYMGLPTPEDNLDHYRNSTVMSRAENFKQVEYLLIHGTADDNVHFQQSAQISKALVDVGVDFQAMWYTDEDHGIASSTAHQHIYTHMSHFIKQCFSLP

Row | Structure (SMILES) | IC50 (human plasma DPP-IV) [nM] | IC50 (DPP-IV) [nM] | IC50 (rat plasma DPP-IV) [nM]
1 | COc1cc2c(cc1OC)CC(C(=O)N1CCC[C@H]1C#N)NC2 (single isomer, unassigned; diastereomer b) [Ex. 7, 1-[1,2,3,4-tetrahydro-6,7-dimethoxy-3-isoquinolinyl]carbonyl-2-Pyrrolidinecarbonitrile [Diastereomer B]] | 12 | 13 | 78
2 | N#C[C@@H]1CCCN1C(=O)[C@@H]1Cc2ccccc2CN1 [Ex. 1, [S-(R*,R*)]-1-(1,2,3,4-tetrahydro-3-isoquinolinyl)carbonyl-2-pyrrolidinecarbonitrile trifluoroacetate] | 41 | 7.6 | 790
3 | N#C[C@@H]1CCCN1C(=O)[C@@H]1Cc2ccc(O)cc2CN1 [Ex. 2, [S-(R*,R*)]-1-(1,2,3,4-tetrahydro-7-hydroxy-3-isoquinolinyl)carbonyl-2-Pyrrolidinecarbonitrile trifluoroacetate] | – | 4 | –
4 | COc1ccc2c(c1)CN[C@H](C(=O)N1CCC[C@H]1C#N)C2 [Ex. 3, [S-(R*,R*)]-1-(1,2,3,4-tetrahydro-7-methoxy-3-isoquinolinyl)carbonyl-2-Pyrrolidinecarbonitrile trifluoroacetate] | 4 | 14 | 16
5 | COc1cc2c(cc1OC)CC(C(=O)N1CCC[C@H]1C#N)NC2 (stereo partly drawn) [Ex. 6, [S-(R*,R*)]-1-[1,2,3,4-tetrahydro-6,7-dimethoxy-3-isoquinolinyl]carbonyl-2-Pyrrolidinecarbonitrile] | – | > 10000 | –
6 | CCOCCOCCOc1ccc2c(c1)CN[C@H](C(=O)N1CCC[C@H]1C#N)C2 [Ex. 9, [S-(R*,R*)]-1-[7-[2-(2-ethoxyethoxy)ethoxy]-1,2,3,4-tetrahydro-3-isoquinolinyl]carbonyl-2-Pyrrolidinecarbonitrile trifluoroacetate] | – | 10 | –

Continued by falling IC50 (DPP-IV), values first:

Row | IC50 (human plasma DPP-IV) [nM] | IC50 (DPP-IV) [nM] | IC50 (rat plasma DPP-IV) [nM] | Structure (SMILES)
7 | 5 | 16 | 12 | N#C[C@@H]1CCCN1C(=O)[C@@H]1Cc2ccc(OCC(N)=O)cc2CN1 [Ex. 10, [S-(R*,R*)]-[3-(2-cyano-1-pyrrolidinyl)carbonyl-1,2,3,4-tetrahydro-7-isoquinolinyl]oxy-Acetamide]
8 | – | 10 | – | CCN(CC)CCCOc1ccc2c(c1)CNC(C(=O)N1CCCC1C#N)C2 (stereo not drawn) [Ex. 8, [S-(R*,R*)]-1-[7-(3-diethylamino)propoxy-1,2,3,4-tetrahydro-3-isoquinolinyl]carbonyl-2-Pyrrolidinecarbonitrile]
9 | – | 10 | – | N#C[C@@H]1CCCN1C(=O)[C@@H]1Cc2ccc(OCC(=O)O)cc2CN1 [Ex. 11, [S-(R*,R*)]-[3-(2-cyano-1-pyrrolidinyl)carbonyl-1,2,3,4-tetrahydro-7-isoquinolinyl]oxy-Acetic acid]
10 | 167 | 9 | 1300 | N#C[C@@H]1CCCN1C(=O)[C@@H]1Cc2ccc(OCc3ccccc3)cc2CN1 [Ex. 4, [S-(R*,R*)]-1-(1,2,3,4-tetrahydro-7-phenylmethoxy-3-isoquinolinyl)carbonyl-2-Pyrrolidinecarbonitrile trifluoroacetate]
11 | 49 | 8 | 315 | CCCOc1ccc2c(c1)CN[C@H](C(=O)N1CCC[C@H]1C#N)C2 [Ex. 5, [S-(R*,R*)]-1-(1,2,3,4-tetrahydro-7-propoxy-3-isoquinolinyl)carbonyl-2-Pyrrolidinecarbonitrile trifluoroacetate]

From patent US6172081A, “Tetrahydroisoquinoline 3-carboxamide derivatives” (Novartis AG, priority 1999, dated 2001)
